EP0514268A1, “Substituted amino acid azetidinyl pyridone derivatives, their preparation and use as medicines” (LABORATORIOS DEL DR. ESTEVE, S.A., priority 1991, dated 1992)
Converted amounts (≈) assume the structure as drawn.

Tests used:
Staph. aureus ATCC 25178 = assay: Antimicrobial activity, agar dilution; type: cell-based, Staphylococcus aureus; settings: Staphylococcus aureus, ATCC25178, 20 h, Agar Dextrose dilutions, 37°C, 20 heures, read-out: Activité pharmacologique antimicrobienne (concentrations)
Excerpt: (§1) L'activité pharmacologique antimicrobienne de ces composés a été étudiée selon les références exposées ci-dessous.
(§2) Activité pharmacologique antimicrobienne : G.L. Daquet et Y.A. Chabbect, techniques en bactériologie, Vol. 3, Flammarion Médecine-Sciences, Paris 1972, et W.B. Hugo et A.D. Rusell, Pharmaceutical Microbiology, Blackwell Scientific Publications, London, 1977.
(§3) Milieu de culture et solvant : Agar d'antibiotiques n° 1 (Oxoid CM 327) Bouillon de triptone-soja (Oxoid CM 129) Solution Physiologique Ringer 1/4 (Oxoid BR 52) Agar Dextrose (BBL 11165)
(§4) Microorganismes : "Bacillus subtilis" ATCC 6633 "Citrobacter freundii" ATCC 112606 "Enterobacter aerogenes" ATCC 15038 "Enterobacter cloacae" ATCC 23355 "Bacillus cereus" ATCC 1178 "Escherichia coli" ATCC 10799 "Escherichia coli" ATCC 23559 "Klebsiella pneumoniae" ATCC 10031 "Proteus vulgaris" ATCC 8427 "Morg. morganii" ATCC 8019 "Pseudomonas aeruginosa" ATCC 9721 "Pseudomonas aeruginosa" ATCC 10145 "Salmonella typhimurium" ATCC 14028 "Salmonella typhimurium" ATCC 6539 "Serratia marcescens" ATCC 13880 "Shigella flexnerii" ATCC 12022 "Staphylococcusepidermis" ATCC 155-1 "Staphylococcus aureus" ATCC 25178 "Streptococcus faecalis" ATCC 10541.
(§5) Chacun des microorganismes est ensemencé par strie dans des tubes d'Agar d'antibiotiques n° 1, et mis en incubation pendant 20 heures à 37°C. Ensuite, on prend une anse de culture, on ensemence dans un bouillon de Triptone-soja et on incube pendant 20 heures à 37°C. On dilue à 1/4 la culture obtenue avec une solution physiologique Ringer, de façon à obtenir une suspension normalisée de […] pour chaque organisme.
(§6) A partir d'une solution de 100 µg/ml, chaque produit est dilué dans l'Agar Dextrose (préalablement fondu et maintenu à 50°C) par dilutions successives de façon à obtenir les concentrations suivantes : 64-32-16-8-4-2-1-0,5-0,25-0,125 µg de dérivé/ml du milieu.
(§7) Postérieurement, chaque concentration de chaque produit est répartie dans des boîtes de Petri de 10 cm de diamètre, à raison de 10 ml de milieu par boîte et autant de boîtes que de microorganismes à tester.
(§8) Une fois le milieu refroidi, les boîtes sont ensemencées avec les inoculations à raison de 0,4 ml d'inoculation par boîte. On les étend avec une anse de Driglasky et on recueille le surnageant. Les boîtes ensemencées sont incubées à 37°C pendant 20 heures.
(§9) Les résultats obtenus sont décrits dans les tableaux suivants. Les concentrations sont données en µg/ml.

[1] = system: Sal. typhimurium ATCC 14028; assay: Antimicrobial activity, agar dilution; type: cell-based, Salmonella typhimurium; settings: Salmonella enterica, 20 h, Agar Dextrose dilutions, 37°C, 20 heures, read-out: Activité pharmacologique antimicrobienne (concentrations)
Excerpt: as §1, §2, §3, §4, §5, §6, §7, §8, §9

[2] = system: Kleb. pneumoniae ATCC 10031; assay: Antimicrobial activity, agar dilution; type: cell-based, Klebsiella pneumoniae; settings: Klebsiella pneumoniae, ATCC10031, 20 h, Agar Dextrose dilutions, 37°C, 20 heures, read-out: Activité pharmacologique antimicrobienne (concentrations)
Excerpt: as §1, §2, §3, §4, §5, §6, §7, §8, §9

Ent. cloacae ATCC 23355 = assay: Antimicrobial activity, agar dilution; type: cell-based, Enterobacter cloacae; settings: Enterobacter cloacae, ATCC23355, 20 h, Agar Dextrose dilutions, 37°C, 20 heures, read-out: Activité pharmacologique antimicrobienne (concentrations)
Excerpt: as §1, §2, §3, §4, §5, §6, §7, §8, §9

Sal. typhi ATCC 6539 = assay: Antimicrobial activity, agar dilution; type: cell-based; settings: Salmonella enterica, 20 h, read-out: Activité pharmacologique antimicrobienne (concentrations)
Excerpt: as §1, §2, §3, §4, §5, §6, §7, §8, §9

[3] = system: Bacillus subtilis ATCC 6633; assay: Antimicrobial activity, agar dilution; type: cell-based; settings: ATCC6633, 20 h, Agar Dextrose dilutions, 37°C, 20 heures, read-out: Activité pharmacologique antimicrobienne (concentrations)
Excerpt: as §1, §2, §3, §4, §5, §6, §7, §8, §9

[4] = system: Staph. epidermidis ATCC 155-1; assay: Antimicrobial activity, agar dilution; type: cell-based; settings: Staphylococcus epidermidis, ATCC155, 20 h, Agar Dextrose dilutions, 37°C, 20 heures, read-out: Activité pharmacologique antimicrobienne (concentrations)
Excerpt: as §1, §2, §3, §4, §5, §6, §7, §8, §9

Ps. aeruginosa ATCC 9721 = assay: Antimicrobial activity, agar dilution; type: cell-based; settings: Pseudomonas aeruginosa, ATCC9721, 20 h, Agar Dextrose dilutions, 37°C, 20 heures, read-out: Activité pharmacologique antimicrobienne (concentrations)
Excerpt: as §1, §2, §3, §4, §5, §6, §7, §8, §9

[5] = system: Escherichia coli ATCC 10799; assay: Antimicrobial activity, agar dilution; type: cell-based; settings: Escherichia coli, ATCC10799, 20 h, Agar Dextrose dilutions, 37°C, 20 heures, read-out: Activité pharmacologique antimicrobienne (concentrations)
Excerpt: as §1, §2, §3, §4, §5, §6, §7, §8, §9

[6] = system: Shigella flexnerii ATCC 12022; assay: Antimicrobial activity, agar dilution; type: cell-based; settings: ATCC12022, 20 h, Agar Dextrose dilutions, 37°C, 20 heures, read-out: Activité pharmacologique antimicrobienne (concentrations)
Excerpt: as §1, §2, §3, §4, §5, §6, §7, §8, §9

[7] = system: Proteus vulgaris ATCC 8427; assay: Antimicrobial activity, agar dilution; type: cell-based; settings: Proteus vulgaris, ATCC8427, 20 h, Agar Dextrose dilutions, 37°C, 20 heures, read-out: Activité pharmacologique antimicrobienne (concentrations)
Excerpt: as §1, §2, §3, §4, §5, §6, §7, §8, §9

[8] = system: Escherichia coli ATCC 23559; assay: Antimicrobial activity, agar dilution; type: cell-based; settings: Escherichia coli, ATCC23559, 20 h, Agar Dextrose dilutions, 37°C, 20 heures, read-out: Activité pharmacologique antimicrobienne (concentrations)
Excerpt: as §1, §2, §3, §4, §5, §6, §7, §8, §9

[9] = system: Bacillus cereus ATCC 11778; assay: Antimicrobial activity, agar dilution; type: cell-based; settings: Bacillus cereus, ATCC11778, 20 h, Agar Dextrose dilutions, 37°C, 20 heures, read-out: Activité pharmacologique antimicrobienne (concentrations)
Excerpt: as §1, §2, §3, §4, §5, §6, §7, §8, §9

[10] = system: Ps. aeruginosa ATCC 10145; assay: Antimicrobial activity, agar dilution; type: cell-based; settings: Pseudomonas aeruginosa, ATCC10145, 20 h, Agar Dextrose dilutions, 37°C, 20 heures, read-out: Activité pharmacologique antimicrobienne (concentrations)
Excerpt: as §1, §2, §3, §4, §5, §6, §7, §8, §9

Morg. morganii ATCC 8019 = assay: Antimicrobial activity, agar dilution; type: cell-based; settings: Morganella morganii, ATCC8019, 20 h, Agar Dextrose dilutions, 37°C, 20 heures, read-out: Activité pharmacologique antimicrobienne (concentrations)
Excerpt: as §1, §2, §3, §4, §5, §6, §7, §8, §9

[11] = Solubility in water and at pH 7.4; type: physicochemical
Excerpt: Un grand nombre des composés de l'invention manifestent une augmentation de la solubilité dans l'eau ainsi que de la solubilité à pH 7,4 lorsqu'on compare avec les composés de référence. L'augmentation de solubilité au pH physiologique peut favoriser l'absorption du produit et la solubilité élevée dans l'eau permet l'administration du composé par voie parentérale.

[12] = system: Serr. marcescens ATCC 13880; assay: Antimicrobial activity, agar dilution; type: cell-based, Serratia marcescens; settings: Serratia marcescens, ATCC13880, 20 h, Agar Dextrose dilutions, 37°C, 20 heures, read-out: Activité pharmacologique antimicrobienne (concentrations)
Excerpt: as §1, §2, §3, §4, §5, §6, §7, §8, §9

[13] = system: Ent. aerogenes ATCC 15038; assay: Antimicrobial activity, agar dilution; type: cell-based, Enterobacter aerogenes; settings: Klebsiella aerogenes, ATCC15038, 20 h, Agar Dextrose dilutions, 37°C, 20 heures, read-out: Activité pharmacologique antimicrobienne (concentrations)
Excerpt: as §1, §2, §3, §4, §5, §6, §7, §8, §9

[14] = system: Strep. faecalis ATCC 10541; assay: Antimicrobial activity, agar dilution; type: cell-based, Streptococcus faecalis; settings: Enterococcus faecalis, ATCC10541, 20 h, Agar Dextrose dilutions, 37°C, 20 heures, read-out: Activité pharmacologique antimicrobienne (concentrations)
Excerpt: as §1, §2, §3, §4, §5, §6, §7, §8, §9

[15] = system: Citr. freundii ATCC 11606; assay: Antimicrobial activity, agar dilution; type: cell-based, Citrobacter freundii; settings: Citrobacter freundii, ATCC11606, 20 h, Agar Dextrose dilutions, 37°C, 20 heures, read-out: Activité pharmacologique antimicrobienne (concentrations)
Excerpt: as §1, §2, §3, §4, §5, §6, §7, §8, §9

## C[C@H](N)C(=O)N[C@@H](C)C(=O)N[C@@H]1CN(c2nc3c(cc2F)c(=O)c(C(=O)O)cn3C2CC2)[C@H]1C [Exemple 4aAA]
Staph. aureus ATCC 25178
  MIC: 4 µg/mL (≈ 8.43 µM)
[1]
  MIC: 2 µg/mL (≈ 4.22 µM)
[2]
  MIC: 8 µg/mL (≈ 16.9 µM)
Ent. cloacae ATCC 23355
  MIC: 2 µg/mL (≈ 4.22 µM)
Sal. typhi ATCC 6539
  MIC: 2 µg/mL (≈ 4.22 µM)
[3]
  MIC: 1 µg/mL (≈ 2.11 µM)
[4]
  MIC: 8 µg/mL (≈ 16.9 µM)
Ps. aeruginosa ATCC 9721
  MIC: > 16 µg/mL
[5]
  MIC: 2 µg/mL (≈ 4.22 µM)
[6]
  MIC: 2 µg/mL (≈ 4.22 µM)
[7]
  MIC: 8 µg/mL (≈ 16.9 µM)
[8]
  MIC: 2 µg/mL (≈ 4.22 µM)
[9]
  MIC: 16 µg/mL (≈ 33.7 µM)
[10]
  MIC: > 16 µg/mL
Morg. morganii ATCC 8019
  MIC: 4 µg/mL (≈ 8.43 µM)
[11]; pH 7
  solubility: > 500 µg/mL
[11]; water
  solubility: > 500 µg/mL
[12]
  MIC: 8 µg/mL (≈ 16.9 µM)
[13]
  MIC: 2 µg/mL (≈ 4.22 µM)
[14]
  MIC: > 16 µg/mL
[15]
  MIC: 2 µg/mL (≈ 4.22 µM)

## CC(C)C[C@H](N)C(=O)N[C@@H]1CN(c2nc3c(cc2F)c(=O)c(C(=O)O)cn3C2CC2)[C@H]1C [Exemple 4aL, chlorhydratede l'acide 7-[(2S,3R)-2-méthyl-3-Leu-amino-1-azétidinyl]-1-cyclopropyl-6-fluoro-1,4-dihydro-4-oxo-1,8-naphtyridine-3-carboxylique]
Staph. aureus ATCC 25178
  MIC: 0.25 µg/mL
[1]
  MIC: 0.12 µg/mL
[2]
  MIC: 0.06 µg/mL
Ent. cloacae ATCC 23355
  MIC: 0.12 µg/mL
Sal. typhi ATCC 6539
  MIC: 0.12 µg/mL
[3]
  MIC: 0.12 µg/mL
[4]
  MIC: 0.25 µg/mL
Ps. aeruginosa ATCC 9721
  MIC: 2 µg/mL
[5]
  MIC: 0.12 µg/mL
[6]
  MIC: 0.06 µg/mL
[7]
  MIC: 0.25 µg/mL
[8]
  MIC: 0.06 µg/mL
[9]
  MIC: 0.12 µg/mL
[10]
  MIC: 8 µg/mL
Morg. morganii ATCC 8019
  MIC: 0.25 µg/mL
[11]; pH 7
  solubility: > 500 µg/mL
[11]; water
  solubility: > 500 µg/mL
[12]
  MIC: 0.25 µg/mL
[13]
  MIC: 0.12 µg/mL
[14]
  MIC: 2 µg/mL
[15]
  MIC: 0.12 µg/mL

## C[C@H](N)C(=O)NC1CN(c2nc3c(cc2F)c(=O)c(C(=O)O)cn3-c2ccc(F)cc2F)C1 [Exemple 4bA, chlorhydratede l'acide 7-(3-Ala-amino-1-azétidinyl)-1-(2,4-difluorophényl)-6-fluoro-1,4-dihydro-4-oxo-1,8-naphtyridine-3-carboxylique]
Staph. aureus ATCC 25178
  MIC: 1 µg/mL
[1]
  MIC: 2 µg/mL
[2]
  MIC: 1 µg/mL
Ent. cloacae ATCC 23355
  MIC: 1 µg/mL
Sal. typhi ATCC 6539
  MIC: 1 µg/mL
[3]
  MIC: 0.5 µg/mL
[4]
  MIC: 4 µg/mL
Ps. aeruginosa ATCC 9721
  MIC: 8 µg/mL
[5]
  MIC: 2 µg/mL
[6]
  MIC: 1 µg/mL
[7]
  MIC: 8 µg/mL
[8]
  MIC: 1 µg/mL
[9]
  MIC: 4 µg/mL
[10]
  MIC: 16 µg/mL
Morg. morganii ATCC 8019
  MIC: 2 µg/mL
[11]; pH 7
  solubility: 66.9 µg/mL
[11]; water
  solubility: 128 µg/mL
[12]
  MIC: 8 µg/mL
[13]
  MIC: 1 µg/mL
[14]
  MIC: 8 µg/mL
[15]
  MIC: 1 µg/mL
